Measurements from patent US20120094995A1, “2-AZA-BICYCLO[2.2.1]HEPTANE COMPOUNDS AND USES THEREOF” (ASTRAZENECA AB, priority 2009, published 2012).

target: T1, human GlyT1b (Homo sapiens, UniProt P48067); test: [3H] Glycine Uptake Assay (SPA) in recombinant hGlyT1b-CHO cells; type: cell-based; settings: Table 1
T1 construct: expressed in transfected cells
T1 sequence (P48067 1-652 isoform P48067-3): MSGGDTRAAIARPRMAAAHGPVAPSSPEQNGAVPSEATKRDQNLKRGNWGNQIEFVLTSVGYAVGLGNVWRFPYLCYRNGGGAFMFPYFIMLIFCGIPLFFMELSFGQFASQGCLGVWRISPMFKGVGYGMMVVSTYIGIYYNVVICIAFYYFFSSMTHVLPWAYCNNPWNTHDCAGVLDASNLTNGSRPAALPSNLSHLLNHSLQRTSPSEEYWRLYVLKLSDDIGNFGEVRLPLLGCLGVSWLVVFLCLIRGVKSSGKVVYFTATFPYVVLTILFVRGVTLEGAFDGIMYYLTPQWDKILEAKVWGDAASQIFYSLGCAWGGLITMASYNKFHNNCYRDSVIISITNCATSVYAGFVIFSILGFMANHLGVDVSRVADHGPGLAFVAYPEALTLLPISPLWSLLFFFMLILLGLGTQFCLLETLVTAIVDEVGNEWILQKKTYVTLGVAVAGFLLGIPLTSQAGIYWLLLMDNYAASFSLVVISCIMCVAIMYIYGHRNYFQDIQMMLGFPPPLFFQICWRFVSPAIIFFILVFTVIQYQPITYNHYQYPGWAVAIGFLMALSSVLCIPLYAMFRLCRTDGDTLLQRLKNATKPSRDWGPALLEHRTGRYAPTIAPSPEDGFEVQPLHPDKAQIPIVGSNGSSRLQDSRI
Protocol: A. [3H] Glycine Uptake Assay
Preparation of recombinant human GlyT1b-CHO cells (hGlyT1b-CHO). The human GlyT1b CDS (GC002087, NM_006934) was cloned downstream of a CMV promoter in a bicistronic expression vector containing a hygromycin B resistance gene. CHO-K1 cells (ATCC) were transfected with the recombinant vector containing GlyT1b using Lipofectamine 2000 (Invitrogen) and cultured in Ham's/F12 media supplemented with 10% fetal bovine serum, 2 mM L-glutamine at 37° C., 5% CO2, 90% humidity. Twenty-four hours after transfection, cells were diluted and switched to media containing 0.5 mg/ml hygromycin B. Antibiotic resistant cells were obtained after 21 days of culture in the presence of hygromycin B. Clonal stable cell lines were isolated by FACS single cell deposition into 96-well plates.
Cells used were Recombinant hGlyT1b/CHO. These cells were cultured in cell culture medium (Ham's/F12 (Modified) (Mediatech, 10-080-CM), containing 10% FBS, 2 mM L-glutamine (Invitrogen 25030-149) and 0.5 mg/mL hygromycin B (Invitrogen, 10687-010)) in 175 cm^2 flasks until near confluence before use in the assay.
Cell medium in a cell culture flask containing near confluent cells was removed and 5 mL of cell stripper was added to submerge all cells on the surface of the culture flask. Cell stripper was removed immediately and the flask incubated in a 37° C. incubator for ˜5 min. Cells were shaken loose and suspended in 5 mL of PBS. After splitting cells to initiate a new flask(s), the cells remaining were collected by centrifugation, counted, and resuspended in assay buffer to a density of ˜2 million/mL. The cell suspension was kept at room temperature before use. The assays buffer was 10 mM HEPES, pH 7.4, containing 150 mM NaCl, 5 mM KCl, 1.5 mM CaCl2, 1.5 mM MgCl2, 0.45 mg/mL L-alanine (added fresh), and 1.8 mg/mL D-glucose (added fresh).
WGA PTV beads were suspended in assay buffer (2 mg/ml) containing 60 nM [^3H]Glycine (PerkinElmer (NET-004, [2-^3H]Glycine, 53.3 Ci/mmol, 1 mCi/mL)) and 20 μM unlabeled glycine and the suspension was kept at room temperature before assay.
To the wells of an OptiPlate, 2 μl DMSO containing a test compound was spotted. This was followed by addition of 98 μl of cell suspension (˜1 million/ml final). After incubating cells with compound for ˜15 min, 100 μl of the SPA (200 μg/well final) and isotope mixture (30 nM isotope with 10 μM cold glycine, final) was added to initiate the glycine uptake. At 2 h, the plate was read on a TopCount to quantify SPA counts.

SMILES | IC50 [nM]
COc1cccc(OC)c1C(=O)NC(c1ccccc1)C12CCC(CC1)N2C (stereo not drawn) [Example 11, 2,6-dimethoxy-N-((7-methyl-7-azabicyclo[2.2.1]heptan-1-yl)(phenyl)methyl)benzamide] | 349

same assay, conditions: Table 2, unit from table title

SMILES | IC50 [nM]
CCCOC(=O)c1ccc(C(NC(=O)c2c(C)cccc2C)C23CCC(CC2)N3C)cc1 (stereo not drawn) [Example 98] | 39
Cc1cccc(C)c1C(=O)NC(c1cccnc1)C12CCC(CC1)N2 (stereo not drawn) [Example 60] | 30
COCCN1C2CCC1([C@H](NC(=O)c1c(C)cccc1C)c1ccccc1)CC2 [Example 24] | 22
Cc1ccc(C(NC(=O)c2c(C)cccc2C)C23CCC(CC2)N3C)o1 (single isomer, unassigned) [Example 91] | 344
Cc1cccc(C)c1C(=O)NC(c1ccc(Br)cc1)C12CCC(CC1)N2 (stereo not drawn) [Example 89] | 68
CCN1C2CCC1(C(NC(=O)c1ccnc(C(F)(F)F)c1F)c1ccccc1)CC2 (stereo not drawn) [Example 52] | 297
Cc1cccc(C)c1C(=O)N[C@H](c1cncnc1)C12CCC(CC1)N2C [Example 72] | 148
Cc1cccc(C)c1C(=O)NC(c1cccc(F)c1)C12CCC(CC1)N2C (single isomer, unassigned) [Example 46] | 2
COCCCN1C2CCC1(C(NC(=O)c1cccnc1SC)c1ccccc1)CC2 (stereo not drawn) [Example 55] | 310
CSc1ncccc1C(=O)NC(c1ccccc1)C12CCC(CC1)N2C(C)C (single isomer, unassigned) [Example 53] | 24
Cc1cccc(C)c1C(=O)NC(c1ccc(N2CCOCC2)cc1)C12CCC(CC1)N2C (stereo not drawn) [Example 97] | 73
Cc1cccc(C)c1C(=O)N[C@H](c1ccccc1)C12CCC(CC1)N2CCN [Example 40] | 13
CSc1ncccc1C(=O)NC(c1ccncc1)C12CCC(CC1)N2C1CCC1 (single isomer, unassigned) [Example 101] | 160
CCCCN1C2CCC1([C@H](NC(=O)c1c(C)cccc1C)c1ccccc1)CC2 [Example 27] | 11
Cc1cccc(C)c1C(=O)N[C@H](c1ccc(F)cc1)C12CCC(CC1)N2 [Example 30] | 93
Cc1cccc(C)c1C(=O)NC(c1cccc(F)c1)C12CCC(CC1)N2 (single isomer, unassigned) [Example 75] | 7
CC(C)N1C2CCC1(C(NC(=O)c1c(Cl)cncc1Cl)c1ccccc1)CC2 (single isomer, unassigned) [Example 54] | 100
Cc1cccc(C)c1C(=O)NC(c1ccc(Br)cc1)C12CCC(CC1)N2C (stereo not drawn) [Example 90] | 4
Cc1cccc(C)c1C(=O)N[C@H](c1ccccc1)C12CCC(CC1)N2Cc1cnn(C)c1 [Example 61] | 12
CC(=O)Nc1cccc(C(NC(=O)c2c(C)cccc2C)C23CCC(CC2)N3C)c1 (stereo not drawn) [Example 102] | 127
Cc1cccc(C)c1C(=O)N[C@H](c1ccccc1)C12CCC(CC1)N2CCO [Example 34] | < 1.28
Cc1cc(C(NC(=O)c2c(C)cccc2C)C23CCC(CC2)N3C)ccn1 (single isomer, unassigned) [Example 85] | 23
Cc1cccc(C)c1C(=O)N[C@H](c1ccccc1)C12CCC(CC1)N2CCN1CCOC1=O [Example 70] | 3
Cc1ccc(C(NC(=O)c2c(C)cccc2C)C23CCC(CC2)N3C)cn1 (single isomer, unassigned) [Example 77] | 71
Cc1cccc(C)c1C(=O)N[C@H](c1ccccc1)C12CCC(CC1)N2CC(C)C [Example 26] | 21
Cc1cccc(C(NC(=O)c2c(C)cccc2C)C23CCC(CC2)N3C)c1 (stereo not drawn) [Example 84] | 26
Cc1cccc(C)c1C(=O)NC(c1cccc(F)c1)C12CCC(CC1)N2 (single isomer, unassigned) [Example 76] | 297
CCN1C2CCC1(C(NC(=O)c1cccnc1SC)c1ccccc1)CC2 (stereo not drawn) [Example 51] | 107
Cc1cccc(C)c1C(=O)NC(c1cccc(F)c1)C12CCC(CC1)N2 (stereo not drawn) [Example 35] | 18
